Measured values taken from publication PMC6409085, “Three odorant-binding proteins are involved in the behavioral response of Sogatella furcifera to rice plant volatiles” (PeerJ, 2019).
Several values for one entry are separate records, joined by “and”; a condition that tells them apart may be missing. Equal entries are not always repeated.

Legend:
Assay in all cases: biochemical
Format in all cases: binding
[1] = target: SfurOBP3 (Sogatella furcifera, UniProt V5T818); conditions: OBP3, three replicate columns;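 also: competitor odorant at 2 to 20 µM with protein and 1-NPN both 2.0 µM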
Chain of SfurOBP3 (V5T818 entry or part of it): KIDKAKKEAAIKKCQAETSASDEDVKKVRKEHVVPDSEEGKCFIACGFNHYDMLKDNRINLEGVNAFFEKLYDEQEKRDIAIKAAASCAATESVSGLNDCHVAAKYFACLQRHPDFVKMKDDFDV
In short: (§1)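 Fluorescence competitive binding used 2.0 µM SfurOBP and 2.0 µM 1-NPN reporter in 50 mM Tris-HCl, pH 7.4, with odorants at 2-20 µM. Fluorescence was read 2 min after adding the odorant (excitation 337 nm, emission 390-490 nm), in triplicate. Ki was calculated from IC50 as IC50/(1 + [1-NPN]/K1-NPN).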

[2] = target: SfurOBP1 (Sogatella furcifera, UniProt V5T8N5); conditions: OBP1, three replicate columns;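 also: competitor odorant at 2 to 20 µM with protein and 1-NPN both 2.0 µM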
Chain of SfurOBP1 (V5T8N5 entry or part of it): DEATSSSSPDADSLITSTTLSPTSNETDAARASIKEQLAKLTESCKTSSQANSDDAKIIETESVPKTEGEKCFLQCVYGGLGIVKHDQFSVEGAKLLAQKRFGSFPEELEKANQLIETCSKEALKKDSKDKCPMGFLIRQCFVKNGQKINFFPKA
In short: as §1

[3] = target: SfurOBP2 (Sogatella furcifera, UniProt V5T759)
Chain of SfurOBP2 (V5T759 entry or part of it): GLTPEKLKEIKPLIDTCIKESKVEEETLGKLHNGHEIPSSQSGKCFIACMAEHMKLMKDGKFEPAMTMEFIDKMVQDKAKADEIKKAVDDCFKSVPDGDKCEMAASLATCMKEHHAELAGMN
In short: as §1

[4] = target: SfurOBP11 (Sogatella furcifera, UniProt V5T6E3)
Chain of SfurOBP11 (V5T6E3 entry or part of it): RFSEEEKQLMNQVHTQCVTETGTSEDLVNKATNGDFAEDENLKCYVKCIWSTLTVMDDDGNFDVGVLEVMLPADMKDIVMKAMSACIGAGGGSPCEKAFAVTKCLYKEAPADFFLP
In short: as §1

CCCCCCCCCCCCCCCC(=O)OC [MH(methyl hexadecanoate)]
Fluorescence competitive binding assay, fluorescence intensity ([1]; ligand concentration 2): 79169 and 74941 and 94761 | Fluorescence competitive binding assay, fluorescence intensity ([1]; ligand concentration 4): 75066 and 75962 and 116353 | Fluorescence competitive binding assay, fluorescence intensity ([1]; ligand concentration 6): 80726 and 113361 and 131059 | Fluorescence competitive binding assay, fluorescence intensity ([1]; ligand concentration 8): 127533 and 115294 and 124955 | Fluorescence competitive binding assay, fluorescence intensity ([1]; ligand concentration 10): 151439 and 140422 and 180514 | Fluorescence competitive binding assay, fluorescence intensity ([1]; ligand concentration 12): 128094 and 97542 and 122147 | Fluorescence competitive binding assay, fluorescence intensity ([1]; ligand concentration 14): 143468 and 130975 and 143763 | Fluorescence competitive binding assay, fluorescence intensity ([1]; ligand concentration 16): 147668 and 180253 and 155136 | Fluorescence competitive binding assay, fluorescence intensity ([1]; ligand concentration 18): 151347 and 96227 and 180613 | Fluorescence competitive binding assay, fluorescence intensity ([1]; ligand concentration 20): 179130 and 144685 and 179646 | Fluorescence competitive binding assay, fluorescence intensity ([2]; ligand concentration 2 (μM)): 12147 and 12451 and 12785 | Fluorescence competitive binding assay, fluorescence intensity ([2]; ligand concentration 4 (μM)): 16267 and 16004 and 15123 | Fluorescence competitive binding assay, fluorescence intensity ([2]; ligand concentration 6 (μM)): 22521 and 20565 and 17849 | Fluorescence competitive binding assay, fluorescence intensity ([2]; ligand concentration 8 (μM)): 45300 and 22408 and 22243 | Fluorescence competitive binding assay, fluorescence intensity ([2]; ligand concentration 10 (μM)): 28286 and 29968 and 28368 | Fluorescence competitive binding assay, fluorescence intensity ([2]; ligand concentration 12 (μM)): 32121 and 35150 and 30012 | Fluorescence competitive binding assay, fluorescence intensity ([2]; ligand concentration 14 (μM)): 38613 and 36070 and 36799 | Fluorescence competitive binding assay, fluorescence intensity ([2]; ligand concentration 16 (μM)): 34740 and 38687 and 36378 | Fluorescence competitive binding assay, fluorescence intensity ([2]; ligand concentration 18 (μM)): 40518 and 49298 and 40325 | Fluorescence competitive binding assay, fluorescence intensity ([2]; ligand concentration 20 (μM)): 47871 and 41141 and 44944 | Fluorescence competitive binding assay, OBP2 (raw fluorescence reading) ([3]; ligand concentration 2 (unit not given), replicate column 1 of 3): 36028 | Fluorescence competitive binding assay, OBP2 (raw fluorescence reading) ([3]; ligand concentration 2 (unit not given), replicate column 2 of 3): 29538 | Fluorescence competitive binding assay, OBP2 (raw fluorescence reading) ([3]; ligand concentration 2 (unit not given), replicate column 3 of 3): 32173 | Fluorescence competitive binding assay, OBP2 (raw fluorescence reading) ([3]; ligand concentration 4 (unit not given), replicate column 1 of 3): 32085 | Fluorescence competitive binding assay, OBP2 (raw fluorescence reading) ([3]; ligand concentration 4 (unit not given), replicate column 2 of 3): 39967 | Fluorescence competitive binding assay, OBP2 (raw fluorescence reading) ([3]; ligand concentration 4 (unit not given), replicate column 3 of 3): 36772 | Fluorescence competitive binding assay, OBP2 (raw fluorescence reading) ([3]; ligand concentration 6 (unit not given), replicate column 1 of 3): 51385 | Fluorescence competitive binding assay, OBP2 (raw fluorescence reading) ([3]; ligand concentration 6 (unit not given), replicate column 2 of 3): 38065 | Fluorescence competitive binding assay, OBP2 (raw fluorescence reading) ([3]; ligand concentration 6 (unit not given), replicate column 3 of 3): 41844 | Fluorescence competitive binding assay, OBP2 (raw fluorescence reading) ([3]; ligand concentration 8 (unit not given), replicate column 1 of 3): 39886 | Fluorescence competitive binding assay, OBP2 (raw fluorescence reading) ([3]; ligand concentration 8 (unit not given), replicate column 2 of 3): 44063 | Fluorescence competitive binding assay, OBP2 (raw fluorescence reading) ([3]; ligand concentration 8 (unit not given), replicate column 3 of 3): 42977 | Fluorescence competitive binding assay, OBP2 (raw fluorescence reading) ([3]; ligand concentration 10 (unit not given), replicate column 1 of 3): 53038 | Fluorescence competitive binding assay, OBP2 (raw fluorescence reading) ([3]; ligand concentration 10 (unit not given), replicate column 2 of 3): 51904 | Fluorescence competitive binding assay, OBP2 (raw fluorescence reading) ([3]; ligand concentration 10 (unit not given), replicate column 3 of 3): 31312 | Fluorescence competitive binding assay, OBP2 (raw fluorescence reading) ([3]; ligand concentration 12 (unit not given), replicate column 1 of 3): 66556 | Fluorescence competitive binding assay, OBP2 (raw fluorescence reading) ([3]; ligand concentration 12 (unit not given), replicate column 2 of 3): 51896 | Fluorescence competitive binding assay, OBP2 (raw fluorescence reading) ([3]; ligand concentration 12 (unit not given), replicate column 3 of 3): 78968 | Fluorescence competitive binding assay, OBP2 (raw fluorescence reading) ([3]; ligand concentration 14 (unit not given), replicate column 1 of 3): 59847 | Fluorescence competitive binding assay, OBP2 (raw fluorescence reading) ([3]; ligand concentration 14 (unit not given), replicate column 2 of 3): 56230 | Fluorescence competitive binding assay, OBP2 (raw fluorescence reading) ([3]; ligand concentration 14 (unit not given), replicate column 3 of 3): 65733 | Fluorescence competitive binding assay, OBP2 (raw fluorescence reading) ([3]; ligand concentration 16 (unit not given), replicate column 1 of 3): 57526 | Fluorescence competitive binding assay, OBP2 (raw fluorescence reading) ([3]; ligand concentration 16 (unit not given), replicate column 2 of 3): 53371 | Fluorescence competitive binding assay, OBP2 (raw fluorescence reading) ([3]; ligand concentration 16 (unit not given), replicate column 3 of 3): 59678 | Fluorescence competitive binding assay, OBP2 (raw fluorescence reading) ([3]; ligand concentration 18 (unit not given), replicate column 1 of 3): 69952 | Fluorescence competitive binding assay, OBP2 (raw fluorescence reading) ([3]; ligand concentration 18 (unit not given), replicate column 2 of 3): 81927 | Fluorescence competitive binding assay, OBP2 (raw fluorescence reading) ([3]; ligand concentration 18 (unit not given), replicate column 3 of 3): 73816 | Fluorescence competitive binding assay, OBP2 (raw fluorescence reading) ([3]; ligand concentration 20 (unit not given), replicate column 1 of 3): 72726 | Fluorescence competitive binding assay, OBP2 (raw fluorescence reading) ([3]; ligand concentration 20 (unit not given), replicate column 2 of 3): 69859 | Fluorescence competitive binding assay, OBP2 (raw fluorescence reading) ([3]; ligand concentration 20 (unit not given), replicate column 3 of 3): 85793 | Fluorescence intensity, fluorescence competitive binding assay, OBP11 ([4]; ligand concentration 2, replicate 1): 29421 | Fluorescence intensity, fluorescence competitive binding assay, OBP11 ([4]; ligand concentration 2, replicate 2): 25881 | Fluorescence intensity, fluorescence competitive binding assay, OBP11 ([4]; ligand concentration 2, replicate 3): 28224 | Fluorescence intensity, fluorescence competitive binding assay, OBP11 ([4]; ligand concentration 4, replicate 1): 30123 | Fluorescence intensity, fluorescence competitive binding assay, OBP11 ([4]; ligand concentration 4, replicate 2): 33254 | Fluorescence intensity, fluorescence competitive binding assay, OBP11 ([4]; ligand concentration 4, replicate 3): 33112 | Fluorescence intensity, fluorescence competitive binding assay, OBP11 ([4]; ligand concentration 6, replicate 1): 36335 | Fluorescence intensity, fluorescence competitive binding assay, OBP11 ([4]; ligand concentration 6, replicate 2): 36906 | Fluorescence intensity, fluorescence competitive binding assay, OBP11 ([4]; ligand concentration 6, replicate 3): 37537 | Fluorescence intensity, fluorescence competitive binding assay, OBP11 ([4]; ligand concentration 8, replicate 1): 38631 | Fluorescence intensity, fluorescence competitive binding assay, OBP11 ([4]; ligand concentration 8, replicate 2): 37383 | Fluorescence intensity, fluorescence competitive binding assay, OBP11 ([4]; ligand concentration 8, replicate 3): 37911 | Fluorescence intensity, fluorescence competitive binding assay, OBP11 ([4]; ligand concentration 10, replicate 1): 41192 | Fluorescence intensity, fluorescence competitive binding assay, OBP11 ([4]; ligand concentration 10, replicate 2): 43341 | Fluorescence intensity, fluorescence competitive binding assay, OBP11 ([4]; ligand concentration 10, replicate 3): 42267 | Fluorescence intensity, fluorescence competitive binding assay, OBP11 ([4]; ligand concentration 12, replicate 1): 42172 | Fluorescence intensity, fluorescence competitive binding assay, OBP11 ([4]; ligand concentration 12, replicate 2): 43002 | Fluorescence intensity, fluorescence competitive binding assay, OBP11 ([4]; ligand concentration 12, replicate 3): 44132 | Fluorescence intensity, fluorescence competitive binding assay, OBP11 ([4]; ligand concentration 14, replicate 1): 50939 | Fluorescence intensity, fluorescence competitive binding assay, OBP11 ([4]; ligand concentration 14, replicate 2): 48639 | Fluorescence intensity, fluorescence competitive binding assay, OBP11 ([4]; ligand concentration 14, replicate 3): 49789 | Fluorescence intensity, fluorescence competitive binding assay, OBP11 ([4]; ligand concentration 16, replicate 1): 53380 | Fluorescence intensity, fluorescence competitive binding assay, OBP11 ([4]; ligand concentration 16, replicate 2): 53280 | Fluorescence intensity, fluorescence competitive binding assay, OBP11 ([4]; ligand concentration 16, replicate 3): 53495 | Fluorescence intensity, fluorescence competitive binding assay, OBP11 ([4]; ligand concentration 18, replicate 1): 69760 | Fluorescence intensity, fluorescence competitive binding assay, OBP11 ([4]; ligand concentration 18, replicate 2): 71076 | Fluorescence intensity, fluorescence competitive binding assay, OBP11 ([4]; ligand concentration 18, replicate 3): 64769 | Fluorescence intensity, fluorescence competitive binding assay, OBP11 ([4]; ligand concentration 20, replicate 1): 67623 | Fluorescence intensity, fluorescence competitive binding assay, OBP11 ([4]; ligand concentration 20, replicate 2): 62432 | Fluorescence intensity, fluorescence competitive binding assay, OBP11 ([4]; ligand concentration 20, replicate 3): 62669
